Source: patent US9629823B2, “Composition for promoting collagen production, for promoting elastin production and/or for promoting keratinocyte migration and usage therefor” (PUBLIC UNIVERSITY CORPORATION OSAKA CITY UNIVERSITY, priority 2013, dated 2017)

Assays:
[1] = system: human normal skin-derived keratinocyte HaCaT cells; assay: Scratch (wound healing) assay of keratinocyte migration; assay type: cell-based; conditions: 24 hours, control = 100
Experimental: Cells of human normal skin-derived keratinocyte HaCaT cells were inoculated at a density of 5.0×10^5 cells/dish in a plastic dish having a diameter of 35 mm with a mark on the bottom and cultured until they reached confluence in a 5% CO2 incubator at 37° C. The culture medium used was Dulbecco's modified Eagle's medium (DMEM: Nissui Pharmaceutical Co., Ltd.) containing 10% fetal bovine serum (FBS: Nichirei Biosciences, Inc.), penicillin (50 units/ml, Meiji Co., Ltd.) and streptomycin ([…], Meiji Co., Ltd.). The medium was replaced every two days.
After culturing the cells until they reached confluence, cells in the dish were scraped with a chip and a linear wound pattern was formed therewith. Immediately thereafter, the wound pattern was analysed under an inverted microscope (OLYMPUS IX-70: Olympus Corporation) and photographed. […] The wound pattern was then analysed with OLYMPUS IX-70 and photographed. […]
Based on the obtained photographic images, the width of wound patterns in the samples was measured. […] Based on the measurement results, the repair rate in the region of the wound by sesaminol was calculated. The repair rates for the samples calculated are as follows with the rate for the control being 100.

[2] = system: type I collagen in CCD-10595K cells; assay: Collagen production by immunohistochemistry (anti-type I collagen) in fibroblasts; assay type: cell-based, human; conditions: sesaminol 15 or 30 μg/ml, 24 hours
Experimental: Cells of human normal skin-derived fibroblast CCD-10595K strain (purchased from DS Pharma Biomedical Co., Ltd.) were inoculated at a density of 3.0×10^4 cells/ml in a plastic dish having a diameter of 35 mm and cultured in a 5% CO2 incubator at 37° C. The medium used was the same medium as in Example 1. After 1 or 2 days, the medium was replaced with the medium containing the sesaminol solution so as to contain sesaminol at a final concentration of 15 or 30 μg/ml and the cells were incubated for 24 hours in a 5% CO2 incubator at 37° C. As a control, incubation was carried out using the medium without sesaminol solution.
After the incubation, cells were washed three times with PBS. Cells were then fixed in 4% paraformaldehyde and stored overnight at 4° C. The fixed cells were treated with 0.1% Triton®-X100 diluted in PBS for 5 minutes and washed with PBS for 5 minutes. The treated cells were blocked in 3% H2O2 and washed with PBS for 5 minutes. The cells were further blocked in 10% normal goat serum and washed with PBS for 5 minutes. A rabbit anti-type I collagen antibody (LSL) diluted 200-fold in PBS was added to the cells on a slide glass which were then incubated for 1 hour and washed with PBS for 5 minutes. […] The prepared slide was analysed on OLYMPUS IX-70 and images of stained cells were obtained.

[3] = system: type I collagen in CCD-10595K cells; assay: Collagen production by western blot analysis in fibroblasts; assay type: cell-based, human; conditions: sesaminol 15 or 30 μg/ml, 24 hours
Experimental: (§1) Cells of human normal skin-derived fibroblast CCD-10595K cells (purchased from DS Pharma Biomedical Co., Ltd.) were inoculated in a plastic dish having a diameter of 35 mm and cultured until they reached confluence in a 5% CO2 incubator at 37° C. Thereafter, the medium was replaced with the medium containing the sesaminol solution so as to contain sesaminol at a final concentration of 15 or 30 μg/ml and the cells were incubated for 24 hours in a 5% CO2 incubator at 37° C. The medium used was the same medium as in Example 1. The medium was replaced every two days until the cells reached confluence. As a control, incubation was carried out using the medium without sesaminol solution.
(§2) After the incubation, cells were washed twice with PBS and collected into a 1.5-ml tube using a cell scraper. […] An aliquot of the collected supernatant was subjected to protein quantification using Serva Blue G (Serva Electrophoresis GmbH) based on the absorbance at 595 nm in order to calculate the amount of sample applied to electrophoresis.
(§3) Equal volumes of the supernatant containing cell lysate and a sample buffer were mixed and heated at 90° C. for 5 minutes to prepare a sample for electrophoresis. […] The ratio of the band intensity of type I collagen or elastin relative to the band intensity of β-actin was calculated for the samples.

[4] = system: elastin in CCD-10595K cells; assay: Elastin production by western blot analysis in fibroblasts; assay type: cell-based, human; conditions: sesaminol 15 or 30 μg/ml, 24 hours
Experimental: as §1, §2, §3

[5] = system: various cell lines used in Examples; assay: Toxicity and viability check on the cell lines used in Examples; assay type: cell-based; conditions: sesaminol solution (3.0 mg/ml in DMSO)
Experimental: The highly concentrated sesaminol solution was dissolved in dimethyl sulphoxide (DMSO) to prepare a sesaminol solution (3.0 mg/ml) to be used in Examples.

For Oc1cc2c(cc1C1OCC3C(c4ccc5c(c4)OCO5)OCC13)OCO2 (stereo not shown) [sesaminol], the “repair rate in the region of the wound (control being 100)” value ([1]; sesaminol 15 μg/ml) was 121.7±25.6, the “repair rate in the region of the wound (control being 100)” value ([1]; sesaminol 30 μg/ml) was 139.1±20.6 and the “type I collagen staining intensity vs control (FIG. 2)” value [2] was “stained more intensely than the control”. For the same compound, the “expression level of collagen (band intensity ratio to β-actin, control = 1; FIG. 3)” value [3] was “increased”, the “expression level of elastin (band intensity ratio to β-actin, control = 1; FIG. 4)” value [4] was “increased” and the “effect on cell viability” value [5] was “did not affect viability”. The “toxicity to cell lines” value [5] was “not toxic”.
